Patent publication US10688093B2, “Methods, compositions, and uses of novel Fyn kinase inhibitors” (priority 2015, dated 2020)

Target: full-length recombinant human FYN A (Homo sapiens (Human), UniProt P06241)
Test: ADP-Glo Kinase Assay of FYN kinase inhibition
Assay type: biochemical
Conditions: primary screen, initial compounds
Outline: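 ADP-Glo read-out of peptide phosphorylation after 90 min RT with 12.5 pmol ATP and 100 pg 12-mer substrate. Enzyme was N-GST full-length human FYN A from insect cells, 3 pg, pre-incubated 30 min with compound, 10 points from 10 μM top, 3-fold steps; IC50 from curve.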

full-length recombinant human FYN A, sequence (P06241 whole entry): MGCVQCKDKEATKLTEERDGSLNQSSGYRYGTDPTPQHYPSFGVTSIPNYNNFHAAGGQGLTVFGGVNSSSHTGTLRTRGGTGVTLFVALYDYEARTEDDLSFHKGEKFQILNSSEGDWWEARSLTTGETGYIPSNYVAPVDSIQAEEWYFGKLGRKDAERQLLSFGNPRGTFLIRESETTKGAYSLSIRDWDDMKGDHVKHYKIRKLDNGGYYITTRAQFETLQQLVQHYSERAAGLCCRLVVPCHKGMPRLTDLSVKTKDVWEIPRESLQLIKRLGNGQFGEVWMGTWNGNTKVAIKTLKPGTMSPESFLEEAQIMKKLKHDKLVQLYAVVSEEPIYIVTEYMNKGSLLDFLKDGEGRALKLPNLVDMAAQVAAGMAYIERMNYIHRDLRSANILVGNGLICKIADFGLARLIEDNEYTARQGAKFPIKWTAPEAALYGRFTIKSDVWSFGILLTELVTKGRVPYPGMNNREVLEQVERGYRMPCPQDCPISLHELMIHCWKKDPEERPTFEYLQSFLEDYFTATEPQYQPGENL

IC50 [nM]	SMILES
2780	Fc1ccc(-c2ccc3ncc(-c4cccnc4)n3n2)cc1 [Compound 401, 6-(4-fluorophenyl)-3-(3-pyridyl)imidazo [1,2-b]pyridazine]
9820	OCc1cccc(-c2ccc3ncc(-c4cccc(Cl)c4)n3n2)c1 [Compound 402, [3-[3-(3-chlorophenyl)imidazo[1,2-b]pyridazin-6-yl]phenyl] methanol]
11900	Oc1cccc(-c2cnc3ccc(-c4ccc(F)cc4)nn23)c1 [Compound 403, 3-[6-(4-fluorophenyl)imidazo[1,2-b]pyridazin-3-yl]phenol]
1970	c1ccc(-c2cnc3ccc(-c4cccs4)nn23)cc1 [Compound 404, 3-phenyl-6-(2-thienyl)imidazo [1,2-b]pyridazine]
549	COc1ccc(-c2cnc3ccc(-c4cccnc4)nn23)cc1OC [Compound 405, 3-(3,4-dimethoxy-phenyl)-6-(3-pyridyl)imidazo [1,2-b]pyridazine]
1650	CC(=O)Nc1cccc(-c2ccc3ncc(-c4cccc(O)c4)n3n2)c1 [Compound 406, N-[3-[3-(3-hydroxyphenyl)imidazo[1,2-b]pyridazin-6-yl]phenyl] acetamide]
125	COc1cc(-c2cnc3ccc(-c4ccc(CO)cc4)nn23)ccc1O [Compound 407, 4-[6-[4-(hydroxymethyl)phenyl]imidazo [1,2-b]pyridazin-3-yl]-2-methoxy-phenol]
3490	CNC(=O)c1cccc(-c2ccc3ncc(-c4ccc(OC)c(OC)c4)n3n2)c1 [Compound 408, 3-[3-(3,4-dimethoxyphenyl)imidazo[1,2-b]pyridazin-6-yl]-N-methyl-benzamide]
598	CC(=O)Nc1cccc(-c2ccc3ncc(-c4ccncc4)n3n2)c1 [Compound 409, N-[3-[3-(4-pyridyl)imidazo [1,2-b]pyridazin-6-yl]phenyl] acetamide]
2350	c1cncc(-c2cnc3ccc(-c4ccoc4)nn23)c1 [Compound 410, 6-(3-furyl)-3-(3-pyridyl)imidazo [1,2-b]pyridazine]
259	COc1ccc(-c2ccc3ncc(-c4cccc(NC(C)=O)c4)n3n2)cc1OC [Compound 411, N-[3-[6-(3,4-dimethoxyphenyl)imidazo[1,2-p]pyridazin-3-yl]phenyl] acetamide]
1060	Oc1cccc(-c2cnc3ccc(-c4ccoc4)nn23)c1 [Compound 412, 3-[6-(3-furyl)imidazo[1,2-b]pyridazin-3-yl]phenol]
371	CC(=O)c1cccc(-c2cnc3ccc(-c4ccncc4)nn23)c1 [Compound 413, 1-[3-[6-(4-pyridyl)imidazo [1,2-b]pyridazin-3-yl]phenyl] ethanone]
977	Cc1cccc(Cc2ccc3ncc(-c4ccncc4)n3n2)c1 [Compound 414, 6-(m-tolylmethyl)-3-(4-pyridyl)imidazo [1,2-b]pyridazine]
7600	Fc1ccc(-c2ccc3ncc(-c4ccc5c(c4)OCO5)n3n2)cc1 [Compound 415, 3-(1,3-benzodioxol-5-yl)-6-(4-fluorophenyl) imidazo[1,2-b]pyridazine]
538	COc1ccc(-c2ccc3ncc(-c4ccc(OC)c(OC)c4)n3n2)cc1OC [Compound 416, 3,6-bis(3,4-dimethoxyphenyl) imidazo[1,2-b]pyridazine]
2740	COc1ccccc1-c1ccc2ncc(-c3cccc(O)c3)n2n1 [Compound 417, 3-[6-(2-methoxyphenyl)imidazo[1,2-b]pyridazin-3-yl]phenol]
1460	OCc1ccc(-c2cnc3ccc(-c4ccccc4)nn23)cc1 [Compound 418, [4-(6-phenylimidazo [1,2-b]pyridazin-3-yl)phenyl] methanol]
21500	CC(=O)Nc1ccc(-c2ccc3ncc(-c4ccc(CO)cc4)n3n2)cc1 [Compound 419, N-[4-[3-[4-(hydroxymethyl)phenyl]imidazo [1,2-b]pyridazin-6-yl]phenyl] acetamide]
102	COc1cc(-c2cnc3ccc(-c4cccc(CO)c4)nn23)ccc1O [Compound 420, 4-[6-[3-(hydroxymethyl)phenyl]imidazo [1,2-b]pyridazin-3-yl]-2-methoxy-phenol]
179	CC(=O)c1cccc(-c2cnc3ccc(-c4cccc(CO)c4)nn23)c1 [Compound 421, 1-[3-[6-[3-(hydroxymethyl)phenyl]imidazo [1,2-b]pyridazin-3-yl]phenyl] ethanone]
694	COc1cc(-c2ccc3ncc(-c4cccs4)n3n2)ccc1O [Compound 423, 2-methoxy-4-[3-(2-thienyl)imidazo[1,2-b]pyridazin-6-yl]phenol]
13900	O=C(NCCO)c1cccc(-c2ccc3ncc(-c4ccccc4)n3n2)c1 [Compound 424, N-(2-hydroxyethyl)-3-(3-phenyl-imidazo[1,2-b]pyridazin-6-yl)benzamide]
624	c1ccc(Cc2ccc3ncc(-c4ccncc4)n3n2)cc1 [Compound 425, 6-benzyl-3-(4-pyridyl)imidazo [1,2-b]pyridazine]

IC50 [nM]	SMILES
11200	NC(=O)c1ccc(-c2ccc3ncc(-c4cccnc4)n3n2)cc1 [Compound 426, 4-[3-(3-pyridyl)imidazo [1,2-b]pyridazin-6-yl]benzamide]
1230	CC(=O)c1cccc(-c2cnc3ccc(-c4cccnc4)nn23)c1 [Compound 427, 1-[3-[6-(3-pyridyl)imidazo [1,2-b]pyridazin-3-yl]phenyl] ethanone]
1780	COc1cccc(-c2ccc3ncc(-c4cccc(C(C)=O)c4)n3n2)c1 [Compound 428, 1-[3-[6-(3-methoxyphenyl)imidazo[1,2-b]pyridazin-3-yl]phenyl] ethanone]
1450	Fc1ccc(Cc2ccc3ncc(-c4ccncc4)n3n2)cc1 [Compound 429, 6-[(4-fluorophenyl)methyl]-3-(4-pyridyl)imidazo [1,2-b]pyridazine]
843	Nc1cccc(-c2ccc3ncc(-c4ccc5c(c4)OCO5)n3n2)c1 [Compound 430, 3-[3-(1,3-benzodioxol-5-yl)imidazo[1,2-b]pyridazin-6-yl]aniline]
1600	c1cc(-c2ccc3ncc(-c4ccc5c(c4)OCO5)n3n2)co1 [Compound 431, 3-(1,3-benzodioxol-5-yl)-6-(3-furyl) imidazo[1,2-b]pyridazine]
3940	COc1ccc(-c2ccc3ncc(-c4ccc(CO)cc4)n3n2)cc1OC [Compound 432, [4-[6-(3,4-dimethoxyphenyl)imidazo[1,2-b]pyridazin-3-yl]phenyl] methanol]
393	CN(C)CCNC(=O)c1cccc(-c2ccc3ncc(-c4ccc5c(c4)OCO5)n3n2)c1 [Compound 433, 3-[3-(1,3-benzodioxol-5-yl)imidazo[1,2-b]pyridazin-6-yl]-N-(2-dimethylamino-ethyl)benzamide]
525	CC(=O)Nc1cccc(-c2cnc3ccc(-c4ccc(F)c(Cl)c4)nn23)c1 [Compound 434, N-[3-[6-(3-chloro-4-fluoro-phenyl)imidazo [1,2-b]pyridazin-3-yl]phenyl] acetamide]
1140	OCc1ccc(-c2cnc3ccc(-c4cccc(O)c4)nn23)cc1 [Compound 435, 3-[3-[4-(hydroxymethyl)phenyl]imidazo [1,2-b]pyridazin-6-yl]phenol]
582	CC(=O)c1cccc(-c2ccc3ncc(-c4cccc(C(C)=O)c4)n3n2)c1 [Compound 437, 1-[3-[3-(3-acetylphenyl)imidazo[1,2-b]pyridazin-6-yl]phenyl] ethanone]
4230	CNc1ccc2ncc(-c3ccsc3)n2n1 [Compound 437_0074, N-methyl-3-(3-thienyl)imidazo [1,2-b]pyridazin-6-amine]
1240	CNc1ccc2ncc(-c3ccc(OC)c(OC)c3)n2n1 [Compound 437_0079, 3-(3,4-dimethoxyphenyl)-N-methyl-imidazo[1,2-b]pyridazin-6-amine]
1750	CNc1ccc2ncc(-c3cccc(NC(C)=O)c3)n2n1 [Compound 437_0081, N-[3-[6-(methylamino)imidazo[1,2-b]pyridazin-3-yl]phenyl] acetamide]
4160	CNc1ccc2ncc(-c3ccc(OC)cc3)n2n1 [Compound 437_0280, 3-(4-methoxyphenyl)-N-methyl-imidazo[1,2-b]pyridazin-6-amine]
2180	CNc1ccc2ncc(-c3cccc(O)c3)n2n1 [Compound 437_0284, 3-[6-(methyl-amino)imidazo[1,2-b]pyridazin-3-yl]phenol]
4460	CNc1ccc2ncc(-c3ccc(OC)nc3)n2n1 [Compound 437_0311, 3-(6-methoxy-3-pyridyl)-N-methyl-imidazo[1,2-b]pyridazin-6-amine]
3260	CNc1ccc2ncc(-c3ccc(F)cc3)n2n1 [Compound 437_0339, 3-(4-fluoro-phenyl)-N-methyl-imidazo[1,2-b]pyridazin-6-amine]
1130	CNc1ccc2ncc(-c3ccccc3O)n2n1 [Compound 437_0340, 2-[6-(methylamino)imidazo[1,2-b]pyridazin-3-yl]phenol]
2940	CNc1ccc2ncc(-c3cccc(C(=O)N(C)C)c3)n2n1 [Compound 437_0349, N,N-dimethyl-3-[6-(methylamino)imidazo[1,2-b]pyridazin-3-yl]benzamide]
5630	CNc1ccc2ncc(-c3cnn(C)c3)n2n1 [Compound 437_7468, N-methyl-3-(1-methylpyrazol-4-yl)imidazo[1,2-b]pyridazin-6-amine]
1160	CN(C)CCNC(=O)c1cccc(-c2ccc3ncc(-c4cccs4)n3n2)c1 [Compound 438, N-(2-dimethyl-aminoethyl)-3-[3-(2-thienyl)imidazo[1,2-b]pyridazin-6-yl]benzamide]
3090	c1ccc(-c2ccc3ncc(-c4ccc5c(c4)OCO5)n3n2)cc1 [Compound 439, 3-(1,3-benzodioxol-5-yl)-6-phenyl-imidazo[1,2-b]pyridazine]

SMILES	IC50 [nM]
COc1ccc(-c2ccc3ncc(-c4cccc(CO)c4)n3n2)cc1OC [Compound 436, [3-[6-(3,4-dimethoxyphenyl)imidazo[1,2-b]pyridazin-3-yl]phenyl] methanol]	749
